{"source": "patent US7202046B2", "about": "“Use of a fluorescent protein for detecting interaction between a target protein and its ligand” (priority 1997, dated 2007)", "key": {"[1]": {"test_system": "fluorescent receptor NK2R-RF1", "assay": "Displacement of 3H SR 48968 binding (competition experiment), HEK 293 cells expressing NK2R-RF1", "design": "species or system rat", "details": "read-out: KI, displacement of 3H SR 48968, 1 nM 3H SR 48968, 25,000 cells, 4° C.", "method": "Each 500 μl sample contains 25,000 cells, 1 nM 3HSR 48968 and a non-radioactive ligand at various concentrations (from 1 nM to 10 μM). The incubation is carried out for one hour at 4° C. Filtration is carried out at the end of incubation, as described in 3b)."}, "NK2R-RF1 receptor": {"test_system": "NK2R-RF1 receptor", "assay": "Fluorescence energy transfer between fluorescent ligand and NK2R-RF1 on HEK293 cells in suspension", "assay_type": "binding, rat", "details": "for Kd: 0 to 256 nM ligand, read-out: affinity value KD from amplitude of the fluorescence signal; for Kd / inhibition of real-time energy transfer between 100 nM NKA BO I and NK2R-RF1: 10^6 cells/ml; for Kd / detection of receptor-fluorescent ligand interaction signal (energy transfer) / inhibition of real-time energy transfer between 100 nM NKA BO I and NK2R-RF1: emission 510 nm; for reversal of the energy transfer signal by excess non-labeled ligand, at equilibrium: 1–10 μM non-labeled ligand after 100 nM NKA BO I; for detection of receptor-fluorescent ligand interaction signal (energy transfer): 100 nM fluorescent ligand, real time; for inhibition of real-time energy transfer between 100 nM NKA BO I and NK2R-RF1: 20 μM non-fluorescent ligand", "method": "The fluorescence experiments are carried out in a 1 ml tank fitted with a magnetic stirring system and placed in a Fluorolog spectrofluorimeter (SPEX) equipped with a 450 W xenon lamp (Osram) and Spex 1680 0.22 m (excitation) and Spex 1681 0.22 m (emission) monochromators. The cells or the membrane fragments are suspended in physiological buffer: 10 mM Hepes, 137.5 mM NaCl, 1.25 mM MgCl2, 1.25 mM CaCl2, 6 mM KCl, 5.6 mM glucose, 0.4 mM NaH2PO4, 0.1% (w/v) BSA, pH 7.4.\nThe HEK293 cells expressing the NK2R-RF1 are suspended at a concentration of 1,000,000 cells/ml in Hepes physiological buffer (10 mM Hepes, 137.5 mM NaCl, 1.25 mM MgCl2, 1.25 mM CaCl2, 6 mM KCl, 5.6 mM glucose, 0.4 mM NaH2PO4, 0.1% (w/v) BSA, pH 7,4). The cells are then placed in a fluorescence tank at a concentration which can range from 100,000 to 1,000,000 cells/ml. […] The emission spectrum of the solution is again recorded. […] The appearance of a peak at 550–560 nm during the addition of the fluorescent ligand and a reduction in its intensity during the addition of non-labeled ligand are also detected. […] The signal is reversible by means of addition of a pharmacological agent capable of inhibiting the interaction between the ligand and its receptor.\nThe same recordings can be made in real time. For this, the excitation wavelength is set at 460 nm and the emission wavelength is set at 510 nm. […] The final value of the fluorescence intensity can be higher than the initial value when the absorption of the fluorescent ligand contributes to the signal."}, "wild-type NK2R receptor [2]": {"molecular_target": "T1, wild-type NK2R receptor (Rattus norvegicus, UniProt P16610)", "T1 construct": "expressed in transfected cells; host or cells: HEK 293 cells, construct pCEP4-NK2R", "T1 sequence (P16610 1-390)": "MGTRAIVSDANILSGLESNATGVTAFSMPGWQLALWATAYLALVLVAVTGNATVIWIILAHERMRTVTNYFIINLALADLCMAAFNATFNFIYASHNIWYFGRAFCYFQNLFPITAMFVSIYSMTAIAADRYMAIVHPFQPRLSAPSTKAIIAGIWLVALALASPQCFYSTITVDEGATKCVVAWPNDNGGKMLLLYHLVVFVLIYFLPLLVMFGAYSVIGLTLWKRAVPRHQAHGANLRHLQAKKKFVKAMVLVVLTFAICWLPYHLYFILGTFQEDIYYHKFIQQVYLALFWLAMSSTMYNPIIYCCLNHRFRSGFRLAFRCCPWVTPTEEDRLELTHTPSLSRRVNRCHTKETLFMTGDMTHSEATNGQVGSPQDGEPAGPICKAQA", "assay": "Release of intracellular calcium (FURA 2), cells expressing pCEP4-NK2R WT", "assay_type": "cell-based", "details": "for inhibition of the NKA-elicited calcium response: antagonist (5 μM cyclopeptide) then 10 nM NKA", "method": "(§1) The fluorescent calcium-chelating agent, FURA 2 acetyl methyl ester (Molecular Probes), dissolved in DMSO is diluted to a concentration of 3 μM in 10 mM Hepes, 137.5 mM NaCl, 1.25 mM MgCl2, 1.25 mM CaCl2, 6 mM KCl, 5.6 mM glucose, 0.4 mM NaH2PO4, 0.1% (w/v) BSA, pH 7.4 buffer. The cell culture medium is aspirated and then replaced with 7 to 10 ml of FURA 2 AM solution. The cells are placed in the CO2 incubator for 45 min. The medium is then aspirated, replaced with FURA-free Hepes buffer and the cells are replaced in the CO2 incubator for a further 15 min. The buffer is aspirated and the cells are then collected after they have been detached from the dish with a 5 mM EDTA, PBS solution for 5 min. After centrifugation at 1000×g for 5 min., the cell pellet obtained is re-suspended at a rate of 1×10^6 cells/ml in Hepes buffer.\n(§2) The calcium-release measurements are carried out at 37° C., in a spectrofluorimetiy tank containing a magnetic stirrer bar. The excitation wavelength is set at […] and the emission wavelength is set at 510 nm."}, "NK2R-RF1": {"test_system": "NK2R-RF1", "assay": "Release of intracellular calcium (FURA 2), cells expressing pCEP4-NK2R-RF1", "assay_type": "cell-based, rat", "details": "for inhibition of the NKA-elicited calcium response: antagonist (5 μM cyclopeptide) then 10 nM NKA", "method": "as §1, §2"}, "wild-type NK2R receptor [3]": {"molecular_target": "T1, wild-type NK2R receptor", "assay": "Saturation binding of 3H SR 48968 to whole cells expressing wild-type NK2R", "details": "two experiments", "method": "(§3) After incubation for 30 min. at room temperature, the samples are filtered through GF/C filters (Whatmann) pre-treated in 1% powdered milk in PBS (2.7 mM KCl, 1.47 mM KH2PO4, […], 8.06 mM Na2HPO4), rinsed twice with PBS (4 ml) and then counted in a scintillation cocktail.\n(§4) Each 500 μl sample contains 25,000 cells, and the fraction of bound ligand is less than 10% of the amount added to each tube. Filtration is carried out at the end of incubation, as described above."}, "[4]": {"molecular_target": "T2, fluorescent receptor NK2R-RF1 (Rattus norvegicus, UniProt P16610)", "T2 construct": "fused on or other part: EGFP (from pEGFP C3-1) fused at the receptor's N-terminus, preceded by the signal peptide of the hen alpha7 nicotinic receptor subunit; Both are tag or targeting parts and are not part of the key", "assay": "Saturation binding of 3H SR 48968 to whole cells expressing NK2R-RF1 (EGFP fused at N-terminal)", "details": "two experiments", "method": "as §3, §4"}, "[5]": {"test_system": "non-transfected HEK 293 cells", "assay": "Release of intracellular calcium (FURA 2), non-transfected cells", "assay_type": "cell-based", "method": "as §1, §2"}, "[6]": {"details": "saturation curve, 25,000 cells, 4° C., 1 h 30 min, read-out: affinity value (KD)"}}, "note": "Where “and” joins values, the source holds several entries; their conditions need not be identical. Identical values can stand only once. Like-named read-outs stand apart in the source and are kept apart here.", "data": [{"molecule": "CSCC[C@H](NC(=O)[C@H](CC(C)C)NC(=O)CNC(=O)[C@@H](NC(=O)[C@H](Cc1ccccc1)NC(=O)[C@H](CO)NC(=O)[C@H](CC(=O)O)NC(=O)[C@@H](NC(=O)[C@H](CCCCN)NC(=O)[C@H](Cc1c[nH]cn1)NCC(=O)NCCNC(=O)CCc1ccc2n1[B-](F)(F)[N+]1=C(c3ccccc3)C=C(c3ccccc3)C1=C2)[C@@H](C)O)C(C)C)C(N)=O", "note": "[NKA BO I]", "values": [{"measurement": "Ki", "setting": "[1]", "result": 16, "unit": "nM"}, {"measurement": "Ki", "setting": "[1]; listed as NKA-BO I", "result": 16.1, "unit": "nM"}, {"measurement": "Kd", "setting": "NK2R-RF1 receptor; listed as NKA-BO I", "result": 24, "unit": "nM"}, {"measurement": "Kd", "setting": "NK2R-RF1 receptor", "result": "20 to 30", "unit": "nM"}, {"measurement": "change of EGFP fluorescence (510 nm) on addition of fluorescent ligand, at equilibrium", "setting": "NK2R-RF1 receptor; 100 nM ligand, excitation 460 nm", "result": "extinction of the fluorescence of EGFP"}]}, {"molecule": "CC(=O)NC1(c2ccccc2)CCN(CC[C@H](CN(C)C(=O)c2ccccc2)c2ccc(Cl)c(Cl)c2)CC1", "note": "[SR 48968]", "values": [{"measurement": "reversal of the energy transfer signal by excess non-labeled ligand, at equilibrium", "setting": "NK2R-RF1 receptor", "result": "return to the initial fluorescence"}, {"measurement": "inhibition of the NKA-elicited calcium response", "setting": "wild-type NK2R receptor [2]", "result": "inhibited"}, {"measurement": "inhibition of the NKA-elicited calcium response", "setting": "NK2R-RF1", "result": "inhibited"}]}, {"molecule": "CC(=O)NC1(c2ccccc2)CCN(CC[C@H](CN(C)C(=O)c2ccccc2)c2ccc(Cl)c(Cl)c2)CC1", "note": "[^3H SR 48968]", "values": [{"measurement": "Kd", "setting": "wild-type NK2R receptor [3]; [6]", "result": "1.05 nM and 0.78 nM"}, {"measurement": "maximum binding value (B max)", "setting": "wild-type NK2R receptor [3]; saturation curve", "result": "0.1 pMol/25,000 cells"}, {"measurement": "Kd", "setting": "[4]; [6]", "result": "0.8 nM and 0.92 nM"}, {"measurement": "maximum binding (B max) value", "setting": "[4]; saturation curve", "result": "0.075 pMol/25,000 cells and 0.088 pMol/25,000 cells"}]}, {"molecule": "NKA Eos: eosin derivative of NKA (eosin-5-iodoacetamide)", "values": [{"measurement": "detection of receptor-fluorescent ligand interaction signal (energy transfer)", "setting": "NK2R-RF1 receptor", "result": "detection of an NK2R-RF1 receptor-fluorescent ligand interaction signal"}]}, {"molecule": "NKA TR: neurokinin A labeled with sulforhodamine 101 acid chloride (Texas Red)", "values": [{"measurement": "detection of receptor-fluorescent ligand interaction signal (energy transfer)", "setting": "NK2R-RF1 receptor", "result": "detection of an NK2R-RF1 receptor-fluorescent ligand interaction signal"}]}, {"molecule": "cyclo(-Gln-Trp-Phe-Gly-Leu-Met) (QWFGLM; cyclic; printed: Gln-Trp-Phe-Gly-Leu-Met) [NK2R antagonist cyclopeptide (Bachem)]", "values": [{"measurement": "inhibition of real-time energy transfer between 100 nM NKA BO I and NK2R-RF1", "setting": "NK2R-RF1 receptor", "result": "inhibition"}, {"measurement": "reversal of the energy transfer signal by excess non-labeled ligand, at equilibrium", "setting": "NK2R-RF1 receptor", "result": "return to the initial fluorescence"}, {"measurement": "inhibition of the NKA-elicited calcium response", "setting": "wild-type NK2R receptor [2]", "result": "inhibited"}, {"measurement": "inhibition of the NKA-elicited calcium response", "setting": "NK2R-RF1", "result": "inhibited"}]}, {"molecule": "neurokinin A [NKA]", "values": [{"measurement": "Ki", "setting": "[1]", "result": 2.1, "unit": "nM"}, {"measurement": "inhibition of real-time energy transfer between 100 nM NKA BO I and NK2R-RF1", "setting": "NK2R-RF1 receptor", "result": "inhibition"}, {"measurement": "reversal of the energy transfer signal by excess non-labeled ligand, at equilibrium", "setting": "NK2R-RF1 receptor", "result": "return to the initial fluorescence"}, {"measurement": "effect of non-fluorescent ligand alone on the fluorescence emission spectrum", "setting": "NK2R-RF1 receptor; cells expressing NK2R-RF1, no fluorescent ligand", "result": "has no effect on the fluorescence emission spectrum"}, {"measurement": "calcium release response elicited", "setting": "wild-type NK2R receptor [2]; 10 nM NKA, 37° C.", "result": "elicited"}, {"measurement": "calcium release response elicited", "setting": "NK2R-RF1; 10 nM NKA, 37° C.", "result": "elicited"}, {"measurement": "calcium release response", "setting": "[5]", "result": "does not elicit any response"}]}]}
